ChEMBL document CHEMBL1909046, “DrugMatrix in vitro pharmacology data”

Columns and labels:
Nitric oxide synthase 1 = Nitric oxide synthase 1 (Rattus norvegicus, UniProt P29476); type: tissue-based, Cerebellum; also: in other assays of this panel Not Active means under 50% inhibition at 10 µM
[1] = target: T1, C-X-C chemokine receptor type 1 (Homo sapiens, UniProt P25024); also: in other assays of this panel Not Active means under 50% inhibition at 10 µM
T1 sequence (P25024 whole entry): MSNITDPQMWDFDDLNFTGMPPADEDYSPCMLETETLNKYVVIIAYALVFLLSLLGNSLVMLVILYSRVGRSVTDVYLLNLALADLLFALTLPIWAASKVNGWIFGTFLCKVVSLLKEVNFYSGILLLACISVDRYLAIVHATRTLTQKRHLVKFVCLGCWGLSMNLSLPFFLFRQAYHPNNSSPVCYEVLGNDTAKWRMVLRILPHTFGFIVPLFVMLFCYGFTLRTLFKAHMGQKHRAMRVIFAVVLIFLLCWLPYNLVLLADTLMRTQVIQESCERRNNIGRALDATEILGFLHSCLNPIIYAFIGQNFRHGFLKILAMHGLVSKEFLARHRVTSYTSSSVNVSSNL

[2] = target: Receptor tyrosine-protein kinase erbB-2 (Homo sapiens, UniProt P04626); test: biochemical; type: cell-based, Insect cells;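 also: inhibition of HER2 kinase enzyme activity, measured with Poly(Glu:Tyr) as the phosphorylation substrate; in other assays of this panel Not Active means under 50% inhibition at 10 µM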
Sequence of Receptor tyrosine-protein kinase erbB-2 (P04626 whole entry): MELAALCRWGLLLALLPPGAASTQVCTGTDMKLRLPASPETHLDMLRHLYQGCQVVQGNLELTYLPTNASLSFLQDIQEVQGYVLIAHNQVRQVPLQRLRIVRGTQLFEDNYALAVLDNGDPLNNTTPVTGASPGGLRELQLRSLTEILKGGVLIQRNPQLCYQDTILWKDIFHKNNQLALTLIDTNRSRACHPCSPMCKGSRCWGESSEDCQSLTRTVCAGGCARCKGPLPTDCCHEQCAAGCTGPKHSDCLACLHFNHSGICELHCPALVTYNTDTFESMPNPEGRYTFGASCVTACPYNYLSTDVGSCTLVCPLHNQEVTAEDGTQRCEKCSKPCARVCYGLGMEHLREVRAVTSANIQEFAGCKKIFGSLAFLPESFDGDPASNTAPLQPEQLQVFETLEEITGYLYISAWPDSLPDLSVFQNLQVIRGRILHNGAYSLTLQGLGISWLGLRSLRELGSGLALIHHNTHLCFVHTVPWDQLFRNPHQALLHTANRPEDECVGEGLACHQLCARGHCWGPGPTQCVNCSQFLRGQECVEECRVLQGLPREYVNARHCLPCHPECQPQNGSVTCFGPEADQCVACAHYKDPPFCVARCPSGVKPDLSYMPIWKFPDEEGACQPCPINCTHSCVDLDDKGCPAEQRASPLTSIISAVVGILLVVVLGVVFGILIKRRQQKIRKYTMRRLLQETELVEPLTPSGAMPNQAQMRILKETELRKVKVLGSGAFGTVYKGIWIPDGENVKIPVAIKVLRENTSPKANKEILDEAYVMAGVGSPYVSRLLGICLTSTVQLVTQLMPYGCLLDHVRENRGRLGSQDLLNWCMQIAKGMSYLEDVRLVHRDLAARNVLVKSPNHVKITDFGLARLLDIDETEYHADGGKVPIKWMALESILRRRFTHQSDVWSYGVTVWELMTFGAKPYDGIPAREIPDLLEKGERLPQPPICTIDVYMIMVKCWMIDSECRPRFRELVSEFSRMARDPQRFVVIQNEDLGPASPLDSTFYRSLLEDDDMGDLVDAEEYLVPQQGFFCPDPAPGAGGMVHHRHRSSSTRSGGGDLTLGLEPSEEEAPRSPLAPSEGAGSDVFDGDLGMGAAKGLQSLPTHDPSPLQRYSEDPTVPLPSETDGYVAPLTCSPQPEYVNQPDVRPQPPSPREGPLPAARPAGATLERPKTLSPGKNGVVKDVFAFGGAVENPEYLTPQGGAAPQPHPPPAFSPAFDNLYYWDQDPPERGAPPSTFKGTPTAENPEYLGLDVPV

[3] = target: Beta-1 adrenergic receptor (Homo sapiens, UniProt P08588); test: DRUGMATRIX: Adrenergic beta1 radioligand binding (ligand: [125I] Cyanopindolol); type: cell membranes, CHO-K1, Membrane; conditions: cho-k1; Not Active = under 50% inhibition at 10 µM
Sequence of Beta-1 adrenergic receptor (P08588 whole entry): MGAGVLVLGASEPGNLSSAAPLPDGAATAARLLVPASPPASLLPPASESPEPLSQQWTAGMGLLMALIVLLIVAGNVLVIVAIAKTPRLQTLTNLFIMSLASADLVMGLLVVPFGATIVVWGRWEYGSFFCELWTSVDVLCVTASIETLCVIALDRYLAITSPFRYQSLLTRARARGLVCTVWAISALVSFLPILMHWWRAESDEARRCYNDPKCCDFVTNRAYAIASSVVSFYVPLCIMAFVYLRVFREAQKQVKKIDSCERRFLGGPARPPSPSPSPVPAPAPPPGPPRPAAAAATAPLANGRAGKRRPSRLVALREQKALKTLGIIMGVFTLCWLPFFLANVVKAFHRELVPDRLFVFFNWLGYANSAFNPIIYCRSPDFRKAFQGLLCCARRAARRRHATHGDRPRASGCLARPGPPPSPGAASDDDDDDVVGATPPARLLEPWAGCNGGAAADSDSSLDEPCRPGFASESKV

[4] = target: T2, C-C chemokine receptor type 4 (Homo sapiens, UniProt P51679); type: cell membranes, Membrane; conditions: chem-1; also: in other assays of this panel Not Active means under 50% inhibition at 10 µM
T2 sequence (P51679 whole entry): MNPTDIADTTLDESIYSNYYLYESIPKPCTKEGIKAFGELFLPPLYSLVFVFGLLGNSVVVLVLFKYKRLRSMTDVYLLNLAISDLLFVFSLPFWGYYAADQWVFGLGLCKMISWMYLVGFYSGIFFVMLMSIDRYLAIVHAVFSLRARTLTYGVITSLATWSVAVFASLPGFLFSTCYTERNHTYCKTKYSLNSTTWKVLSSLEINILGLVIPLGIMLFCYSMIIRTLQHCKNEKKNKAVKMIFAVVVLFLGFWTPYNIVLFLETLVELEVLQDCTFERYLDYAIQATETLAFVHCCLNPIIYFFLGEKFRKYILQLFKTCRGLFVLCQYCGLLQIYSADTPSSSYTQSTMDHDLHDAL

[5] = DRUGMATRIX: ATPase, Na+/K+ enzyme inhibition (substrate: ATP); type: tissue-based, Sus scrofa, Heart; conditions: Not Active = under 50% inhibition at 10 µM
[6] = DRUGMATRIX: GABAA, Flunitrazepam, Central radioligand binding (ligand: [3H] Flunitrazepam); type: cell membranes, Rattus norvegicus, Wistar, Brain, Membrane; conditions: Not Active = under 50% inhibition at 10 µM

Sequence of Nitric oxide synthase 1 (P29476 whole entry): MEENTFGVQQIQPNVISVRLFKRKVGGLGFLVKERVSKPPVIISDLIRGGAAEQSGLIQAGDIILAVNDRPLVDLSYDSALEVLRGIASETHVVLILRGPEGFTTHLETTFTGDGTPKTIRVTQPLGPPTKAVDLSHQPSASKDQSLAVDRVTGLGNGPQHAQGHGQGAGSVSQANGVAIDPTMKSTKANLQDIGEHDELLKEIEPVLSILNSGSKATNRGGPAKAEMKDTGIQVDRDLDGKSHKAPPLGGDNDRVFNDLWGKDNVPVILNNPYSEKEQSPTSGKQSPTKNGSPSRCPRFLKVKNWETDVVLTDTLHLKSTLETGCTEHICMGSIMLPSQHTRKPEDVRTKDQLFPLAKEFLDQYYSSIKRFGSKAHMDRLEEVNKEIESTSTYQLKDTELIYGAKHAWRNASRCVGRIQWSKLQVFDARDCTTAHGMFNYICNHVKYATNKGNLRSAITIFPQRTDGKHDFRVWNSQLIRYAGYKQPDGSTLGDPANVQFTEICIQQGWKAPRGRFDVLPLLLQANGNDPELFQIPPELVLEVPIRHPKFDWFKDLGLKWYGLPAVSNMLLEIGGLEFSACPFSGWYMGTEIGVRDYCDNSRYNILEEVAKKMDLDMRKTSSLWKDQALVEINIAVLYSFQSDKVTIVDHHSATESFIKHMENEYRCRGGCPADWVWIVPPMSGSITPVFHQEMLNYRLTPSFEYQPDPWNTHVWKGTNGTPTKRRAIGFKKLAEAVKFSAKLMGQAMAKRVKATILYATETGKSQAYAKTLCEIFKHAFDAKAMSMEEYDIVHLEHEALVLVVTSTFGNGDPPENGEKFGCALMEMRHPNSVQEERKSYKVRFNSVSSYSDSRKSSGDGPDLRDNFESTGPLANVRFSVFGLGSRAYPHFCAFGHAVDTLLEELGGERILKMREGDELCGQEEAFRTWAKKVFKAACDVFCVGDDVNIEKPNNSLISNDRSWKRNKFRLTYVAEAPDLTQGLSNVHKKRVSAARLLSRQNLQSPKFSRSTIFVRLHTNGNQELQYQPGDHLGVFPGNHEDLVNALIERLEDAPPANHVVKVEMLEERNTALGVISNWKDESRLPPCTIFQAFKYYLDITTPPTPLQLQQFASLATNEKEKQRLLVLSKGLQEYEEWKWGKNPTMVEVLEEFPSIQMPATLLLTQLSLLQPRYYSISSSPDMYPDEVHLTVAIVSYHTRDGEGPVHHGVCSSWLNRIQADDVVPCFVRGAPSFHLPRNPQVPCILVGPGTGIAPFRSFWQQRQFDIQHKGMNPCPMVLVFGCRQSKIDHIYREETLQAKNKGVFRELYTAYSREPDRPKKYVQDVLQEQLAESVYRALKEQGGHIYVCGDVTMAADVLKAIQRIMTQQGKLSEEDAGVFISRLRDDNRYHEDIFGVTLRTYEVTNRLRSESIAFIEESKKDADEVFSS

CCN(CC)CCOc1ccc(/C(=C(/Cl)c2ccccc2)c2ccccc2)cc1 [ENCLOMIPHENE]
IC50 (Nitric oxide synthase 1): Not Active | IC50 [1]: Not Active | IC50 ([2]; read-out: IC50): 1670 nM | IC50 [3]: Not Active | IC50 [4]: Not Active

CNCCC(Oc1ccc(C(F)(F)F)cc1)c1ccccc1 (configuration not stated) [FLUOXETINE]
IC50 (Nitric oxide synthase 1): Not Active | IC50 [1]: Not Active | IC50 ([2]; insect cells): Not Active | IC50 [3]: Not Active | IC50 [4]: Not Active

CC(C)Oc1ccc2c(=O)c(-c3ccccc3)coc2c1 [IPRIFLAVONE]
IC50 (Nitric oxide synthase 1): Not Active | IC50 [1]: Not Active | IC50 ([2]; insect cells): Not Active | IC50 [5]: Not Active | Ki [5]: Not Active | IC50 [3]: Not Active | IC50 [4]: Not Active | IC50 [6]: Not Active | Ki [6]: Not Active

CC(C)NCC(O)c1ccc(O)c(O)c1 (configuration not stated) [ISOPROTERENOL]
IC50 (Nitric oxide synthase 1): Not Active | IC50 [1]: Not Active | IC50 ([2]; insect cells): Not Active | IC50 [5]: Not Active | Ki [5]: Not Active | IC50 [4]: Not Active | IC50 [6]: Not Active | Ki [6]: Not Active

CCN1CCC[C@H]1CNC(=O)c1cc(S(N)(=O)=O)ccc1OC [LEVOSULPIRIDE]
IC50 (Nitric oxide synthase 1): Not Active | IC50 [1]: Not Active | IC50 ([2]; insect cells): Not Active | IC50 [5]: Not Active | Ki [5]: Not Active | IC50 [3]: Not Active | IC50 [4]: Not Active | IC50 [6]: Not Active | Ki [6]: Not Active

CCN(CC)CC(=O)Nc1c(C)cccc1C [LIDOCAINE]
IC50 (Nitric oxide synthase 1): Not Active | IC50 [1]: Not Active | IC50 ([2]; insect cells): Not Active | IC50 [5]: Not Active | Ki [5]: Not Active | IC50 [3]: Not Active | IC50 [4]: Not Active | IC50 [6]: Not Active | Ki [6]: Not Active

COc1c2occc2cc2ccc(=O)oc12 [METHOXSALEN]
IC50 (Nitric oxide synthase 1): Not Active | IC50 [1]: Not Active | IC50 ([2]; insect cells): Not Active | IC50 [5]: Not Active | Ki [5]: Not Active | IC50 [3]: Not Active | IC50 [4]: Not Active | IC50 [6]: Not Active | Ki [6]: Not Active

C[C@H]1C[C@@H]2[C@H]([C@@H](O)C[C@@]3(C)[C@H]2CC[C@]3(O)C(=O)CO)[C@@]2(C)C=CC(=O)C=C12 [METHYLPREDNISOLONE]
IC50 (Nitric oxide synthase 1): Not Active | IC50 [1]: Not Active | IC50 ([2]; insect cells): Not Active | IC50 [5]: Not Active | Ki [5]: Not Active | IC50 [3]: Not Active | IC50 [4]: Not Active | IC50 [6]: Not Active | Ki [6]: Not Active

CC[C@@H](C(=O)[C@@H](C)[C@@H](O)[C@H](C)[C@@H]1O[C@@H]([C@@H](CC)C(=O)O)CC[C@@H]1C)[C@H]1O[C@]2(C=C[C@@H](O)[C@]3(CC[C@@](C)([C@H]4CC[C@](O)(CC)[C@H](C)O4)O3)O2)[C@H](C)C[C@@H]1C [SALINOMYCIN]
IC50 (Nitric oxide synthase 1): Not Active | IC50 [1]: Not Active | IC50 ([2]; insect cells): Not Active | IC50 [5]: Not Active | Ki [5]: Not Active | IC50 [3]: Not Active | IC50 [4]: Not Active | IC50 [6]: Not Active | Ki [6]: Not Active

O=C(O)c1cn(-c2ccc(F)cc2)c2cc(N3CCNCC3)c(F)cc2c1=O [SARAFLOXACIN]
IC50 (Nitric oxide synthase 1): Not Active | IC50 [1]: Not Active | IC50 ([2]; insect cells): Not Active | IC50 [5]: Not Active | Ki [5]: Not Active | IC50 [3]: Not Active | IC50 [4]: Not Active | IC50 [6]: Not Active | Ki [6]: Not Active

CC(C)NCC(O)c1ccc(NS(C)(=O)=O)cc1 (configuration not stated) [SOTALOL]
IC50 (Nitric oxide synthase 1): Not Active | IC50 [1]: Not Active | IC50 ([2]; insect cells): Not Active | IC50 [5]: Not Active | Ki [5]: Not Active | IC50 [4]: Not Active | IC50 [6]: Not Active | Ki [6]: Not Active

O.O.O.O.O.O.[Cl-].[Cl-].[Sr+2] [STRONTIUM CHLORIDE HEXAHYDRATE]
IC50 (Nitric oxide synthase 1): Not Active | IC50 [1]: Not Active | IC50 ([2]; insect cells): Not Active | IC50 [5]: Not Active | Ki [5]: Not Active | IC50 [3]: Not Active | IC50 [4]: Not Active | IC50 [6]: Not Active | Ki [6]: Not Active

CN(C/C=C/C#CC(C)(C)C)Cc1cccc2ccccc12 [TERBINAFINE]
IC50 (Nitric oxide synthase 1): Not Active | IC50 [1]: Not Active | IC50 ([2]; insect cells): Not Active | IC50 [5]: Not Active | Ki [5]: Not Active | IC50 [3]: Not Active | IC50 [4]: Not Active | IC50 [6]: Not Active | Ki [6]: Not Active
